From patent US20100184711A1, “Alpha-GLYCOSYL THIOLS AND alpha-S-LINKED GLYCOLIPIDS” (UNIVERSITY COLLEGE DUBLIN, NATIONAL UNIVERSITY OF IRELAND, …, priority 2008, published 2010) come the findings set out here.

The assay deals with iNKT cells. Nature of the assay: iNKT cells co-cultured with CD1d+ cells, cytokine release. In kind it is cell-based. As for the experimental part: iNKT cells were treated with an α-S-linked galactosylceramide (alpha-GalCer) to determine immunostimulatory activity. FIGS. 4 and 5 show the amounts of interferon-gamma and IL-4 released (expressed as a fold-increase over the levels produced in responses to the mock-transfected cells alone) in 5 experiments. Cytokine was released when iNKT cells were co-cultured with CD1d+ cells in the absence of added glycolipid (second bar). This was enhanced for both cytokines when alpha-GalCer was added and blocked using an antibody specific for CD1d.

The mark [1] stands for this setting: iNKT cells co-cultured with CD1d+ cells, compared with no added glycolipid, 5 experiments, FIGS. 4 and 5.

Take `CCCCCCCCCCCCCCCCCCCCCCCCCC(=O)N[C@@H](CO[C@H]1O[C@H](CO)[C@H](O)[C@H](O)[C@H]1O)[C@H](O)[C@H](O)CCCCCCCCCCCCCC` [alpha-GalCer]: the “effect of antibody specific for CD1d on glycolipid-induced cytokine release” value (iNKT cells co-cultured with CD1d+ cells plus anti-CD1d antibody, both cytokines) is “blocked”. For the same compound, under setting [1], the “IL-4 released (fold-increase over the levels produced in response to mock-transfected cells alone)” value is given as “enhanced” and the “interferon-gamma released (fold-increase over the levels produced in response to mock-transfected cells alone)” value is reported as “enhanced”.
